Measured values reported in US7183252B2, “Indole peptidomimetics as thrombin receptor antagonists” (Ortho-McNeil Pharmaceutical, Inc., priority 1999, dated 2007).
Like-named read-outs stand apart in the source and are kept apart here.

Experiments:
[1] = target: T1, thrombin receptor (PAR-1) (Homo sapiens, UniProt P25116); experiment: In vitro thrombin receptor binding assay (CHRF membranes); conditions: tritiated 721-40 radioligand, read-out: Bndg IC50 (Thrombin receptor binding)
T1 construct: CHRF membranes (Jones, Biochim. Biophys. Acta 1992, 1136, 272) are thawed from −70° C; endogenous in cells; host or cells: CHRF cell membranes
T1 sequence (P25116 22-425): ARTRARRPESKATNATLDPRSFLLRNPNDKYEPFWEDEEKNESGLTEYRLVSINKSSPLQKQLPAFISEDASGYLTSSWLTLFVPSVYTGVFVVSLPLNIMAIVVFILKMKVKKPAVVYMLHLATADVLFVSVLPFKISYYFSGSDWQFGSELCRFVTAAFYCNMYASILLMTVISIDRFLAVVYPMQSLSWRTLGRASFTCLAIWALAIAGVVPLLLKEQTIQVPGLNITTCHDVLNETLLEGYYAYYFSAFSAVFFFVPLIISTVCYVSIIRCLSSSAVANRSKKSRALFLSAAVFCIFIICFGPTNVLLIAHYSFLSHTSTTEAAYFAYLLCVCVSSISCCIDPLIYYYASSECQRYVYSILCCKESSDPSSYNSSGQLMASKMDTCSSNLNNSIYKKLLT
Experimental: In Vitro Thrombin Receptor Binding Assay
CHRF membranes (Jones, Biochim. Biophys. Acta 1992, 1136, 272) are thawed from −70° C., centrifuged at maximum speed for 5 min, washed twice with binding buffer (50 mM HEPES containing 5 mM MgCl2 and 0.1% BSA), and re-suspended in binding buffer (25 μg/[…]). 100 μL of membranes are added to the 24-Wallac plates and delivered to the Tomtech apparatus. In a typical experiment, 6 μL of samples (from a 125 μg/mL intermediary plate, 20% DMSO) and 44 μL buffer are delivered to the plates (final conc. of compounds is 3.7 μg/mL, 0.6% DMSO). Similarly, 6 μL 20% DMSO and 44 μL buffer are delivered to both column 1 (NSB) and column 12 (TB). 10 μL Ser-pFPhe-Har-Leu-Har-Lys-Tyr-NH2 (721–40; 500 μM in deionized water) is added to column 1. 50 μL tritiated 721–40 (specific activity 46 Ci/mmol) is added to all the wells. The plates are mixed well for 20 seconds, incubated for 30 min,and then harvested with 10 mM HEPES/138 mM NaCl using the Skatron harvester. The filters (GF/C Brandel FPXLR 296) are presoaked 3 h in 0.5% polyethylenimine in HEPES/0.1M N-acetylglucosamine) are set in saran wrap and dried for 3 min in the microwave, and placed in sample bags (Wallac 1450-432). 4.5 mL scintillation fluid (Wallac, Betaplate Scint 1205-440) is added. The bags are sealed, placed in filter cassettes (Wallac 1450-104), and analyzed on the microbeta counter.
(§1) Table 7 contains IC50 values (μM) of the compounds in a thrombin receptor binding assay, and IC50 values (μM) against platelet aggregation stimulated by thrombin.

gel-filtered platelets = experiment: In vitro inhibition of thrombin-induced gel-filtered platelet aggregation; type: cell-based; conditions: human gel-filtered platelets, agonist thrombin 50 μL of 1 unit/mL, read-out: Thrmb IC50 (Thrombin-induced aggregation of gel-filtered platelets)
Experimental: In Vitro Inhibition of Thrombin-Induced Gel-Filtered Platelet Aggregation Assay
The percentage of platelet aggregation is calculated as an increase in light transmission of compound-treated platelet concentrate vs. control-treated platelet concentrate. Human blood is obtained from drug free, normal donors in tubes containing 0.13M sodium citrate. Platelet rich plasma (PRP) is collected by centrifugation of whole blood at 200×g for 10 min at 25° C. The PRP (5 mL) is gel filtered through Sepharose 2B (bed volume 50 mL), and the platelet count is adjusted to 2×10^7 platelets per sample. The following constituents are added to a siliconized cuvette: concentrated platelet filtrate and Tyrode's buffer (0.14M NaCl, 0.0027M KCl, 0.012M NaHCO3, 0.76 mM Na2HPO4, 0.0055M glucose, 2 mg/mL BSA and 5.0 mM HEPES @ pH 7.4) in an amount equal to 350 μL 50 μL of 20 mM calcium and 50 μL of the test compound. Aggregation is monitored in a BIODATA aggregometer for the 3 min following the addition of agonist (thrombin 50 μL of 1 unit/mL).
as §1

Row | SMILES | IC50 [1] | IC50 (gel-filtered platelets; Platelet) | IC50 (gel-filtered platelets)
1 | COc1ccc(CNC(=O)[C@H](CCCNC(=N)N)NC(=O)[C@H](Cc2ccc(F)c(F)c2)NC(=O)Nc2ccc3c(CN4CCCC4)cn(Cc4c(Cl)cccc4Cl)c3c2)cc1 [Compound 61] | 300 nM | 1400 nM | –
2 | N=C(N)NCCC[C@H](NC(=O)[C@H](Cc1ccc(F)c(F)c1)NC(=O)Nc1ccc2c(CN3CCCC3)cn(Cc3c(Cl)cccc3Cl)c2c1)C(=O)NCc1ccncc1 [Compound 62] | 30 nM | 1260 nM | –
3 | N=C(N)NCCC[C@H](NC(=O)[C@H](Cc1ccc(Br)cc1)NC(=O)Nc1ccc2c(CN3CCCCC3)cn(Cc3c(Cl)cccc3Cl)c2c1)C(=O)NCc1ccccc1 [Compound 63] | 130 nM | 700 nM | –
4 | Cc1ccccc1Cn1cc(CN2CCCC2)c2ccc(NC(=O)N[C@@H](Cc3ccc(F)c(F)c3)C(=O)N[C@@H](CCCNC(=N)N)C(=O)NCCc3ccccc3Cl)cc21 [Compound 64] | 230 nM | 2200 nM | –
5 | COc1ccccc1CCNC(=O)[C@H](CCCNC(=N)N)NC(=O)[C@H](Cc1ccc(F)c(F)c1)NC(=O)Nc1ccc2c(CN3CCCC3)cn(Cc3ccccc3C)c2c1 [Compound 65] | 220 nM | 1000 nM | –
6 | NCCC[C@H](NC(=O)[C@H](Cc1ccc(F)c(F)c1)NC(=O)Nc1ccc2c(CN3CCCC3)cn(Cc3c(Cl)cccc3Cl)c2c1)C(=O)NCc1ccccc1 [Compound 66] | 1100 nM | 240 nM | –
7 | CC(C)NCCCC[C@H](NC(=O)[C@H](Cc1ccc(F)c(F)c1)NC(=O)Nc1ccc2c(CN3CCCCC3)cn(Cc3c(Cl)cccc3Cl)c2c1)C(=O)NCc1ccccc1 [Compound 67] | 450 nM | 420 nM | –
8 | O=C(Nc1ccc2c(CN3CCCC3)cn(Cc3c(Cl)cccc3Cl)c2c1)N[C@@H](Cc1ccc(F)c(F)c1)C(=O)N[C@@H](CCCCNC(=O)c1cccnc1)C(=O)NCc1ccccc1 [Compound 68] | 6500 nM | 4700 nM | –
9 | N=C(N)NCCC[C@@H](NC(=O)[C@H](Cc1ccc(F)c(F)c1)NC(=O)Nc1ccc2c(CN3CCCC3)cn(Cc3c(Cl)cccc3Cl)c2c1)C(=O)NCc1ccccc1 [Compound 69] | 620 nM | – | 310 nM
10 | NCCCC[C@H](NC(=O)[C@H](Cc1ccc(F)c(F)c1)NC(=O)Nc1ccc2c(CN3CCCC3)cn(Cc3c(Cl)cccc3Cl)c2c1)C(=O)NCc1ccccc1 [Compound 70] | 320 nM | 310 nM | –
11 | CC(=O)NCCCC[C@H](NC(=O)[C@H](Cc1ccc(F)c(F)c1)NC(=O)Nc1ccc2c(CN3CCCC3)cn(Cc3c(Cl)cccc3Cl)c2c1)C(=O)NCc1ccccc1 [Compound 71] | 3000 nM | 550 nM | –
12 | O=C(Nc1ccc2c(CN3CCCC3)cn(Cc3c(Cl)cccc3Cl)c2c1)N[C@@H](Cc1ccc(F)c(F)c1)C(=O)N[C@@H](Cc1c[nH]cn1)C(=O)NCc1ccccc1 [Compound 72] | 1300 nM | 460 nM | –
13 | CCCCCCCCNC(=O)[C@H](CCCNC(=N)N)NC(=O)[C@H](Cc1ccc(F)c(F)c1)NC(=O)Nc1ccc2c(CN3CCCCC3)cn(Cc3ccc(F)cc3)c2c1 [Compound 73] | 7500 nM | 2400 nM | –
14 | N=C(N)NCCC[C@H](NC(=O)[C@H](Cc1ccc(F)c(F)c1)NC(=O)Nc1ccc2c(CN3CCCC3)cn(CC3CCCCC3)c2c1)C(=O)NCc1ccccc1 [Compound 74] | 560 nM | 2900 nM | –
15 | CCN(CC)Cc1cn(CCCc2ccccc2)c2cc(NC(=O)N[C@@H](Cc3ccc(F)c(F)c3)C(=O)N[C@@H](CCCNC(=N)N)C(=O)NCc3ccccc3)ccc12 [Compound 75] | 230 nM | 2200 nM | –
16 | CCN(CC)Cc1cn(CCc2ccc(F)cc2)c2cc(NC(=O)N[C@@H](Cc3ccc(F)c(F)c3)C(=O)N[C@@H](CCCNC(=N)N)C(=O)NCc3ccccc3)ccc12 [Compound 76] | 200 nM | 1100 nM | –

Row | SMILES | IC50 [1] | IC50 (gel-filtered platelets; Platelet) | IC50 (gel-filtered platelets)
17 | NC(=O)NCCC[C@H](NC(=O)[C@H](Cc1cccc(F)c1)NC(=O)Nc1ccc2c(CN3CCCC3)cn(Cc3c(Cl)cccc3Cl)c2c1)C(=O)NCc1ccccc1 [Compound 77] | 620 nM | 29500 nM | –
18 | NCC[C@H](NC(=O)[C@H](Cc1ccc(Cl)cc1)NC(=O)Nc1ccc2c(CN3CCCC3)cn(Cc3c(Cl)cccc3Cl)c2c1)C(=O)NCc1ccccc1 [Compound 78] | 1500 nM | 1300 nM | –
19 | NC[C@H](NC(=O)[C@H](Cc1ccc(Cl)cc1)NC(=O)Nc1ccc2c(CN3CCCC3)cn(Cc3c(Cl)cccc3Cl)c2c1)C(=O)NCc1ccccc1 [Compound 79] | 170 nM | 1300 nM | –
20 | N=C(N)NCCC[C@H](NC(=O)Nc1ccc2c(CN3CCCC3)cn(Cc3c(Cl)cccc3Cl)c2c1)C(=O)N[C@@H](Cc1ccc(F)c(F)c1)C(=O)NCc1ccccc1 [Compound 80] | 5900 nM | 11300 nM | –
21 | N=C(N)NCCC[C@H](NC(=O)[C@H](Cc1ccc(F)c(F)c1)NC(=O)Nc1ccc2c(CN3CCCC3)cn(Cc3c(Cl)cccc3Cl)c2c1)C(=O)NCCCCCN [Compound 81] | 70 nM | 410 nM | –
22 | NC(N)=NCCC[C@H](NC(=O)[C@H](Cc1ccc(F)c(F)c1)NC(=O)Nc1ccc2c(CN3CCCC3)cn(Cc3ccc(F)cc3)c2c1)C(=O)NCc1ccco1 [Compound 82] | 310 nM | 1500 nM | –
23 | C[C@@H](CNC(=O)[C@H](CCCNC(=N)N)NC(=O)[C@H](Cc1ccc(F)c(F)c1)NC(=O)Nc1ccc2c(CN3CCCC3)cn(Cc3c(Cl)cccc3Cl)c2c1)c1ccccc1 [Compound 83] | 680 nM | 430 nM | –
24 | N=C(N)NCCC[C@H](NC(=O)[C@@H](Cc1ccc(F)c(F)c1)NC(=O)Nc1ccc2c(CN3CCCC3)cn(Cc3c(Cl)cccc3Cl)c2c1)C(=O)NCc1ccccc1 [Compound 84] | 3200 nM | – | 14900 nM
25 | NC(N)=NCCC[C@H](NC(=O)[C@H](Cc1ccc(I)cc1)NC(=O)Nc1ccc2c(CN3CCCCC3)cn(Cc3c(Cl)cccc3Cl)c2c1)C(=O)NCc1ccccc1 [Compound 85] | 1600 nM | 4800 nM | –
26 | N=C(N)NCCC[C@H](NC(=O)[C@H](Cc1ccccc1Cl)NC(=O)Nc1ccc2c(CN3CCCCC3)cn(Cc3c(Cl)cccc3Cl)c2c1)C(=O)NCc1ccccc1 [Compound 86] | 510 nM | 2900 nM | –
27 | COC[C@H]1CCCN1Cc1cn(Cc2c(Cl)cccc2Cl)c2cc(NC(=O)N[C@@H](Cc3ccc(Cl)cc3)C(=O)N[C@@H](CCCNC(=N)N)C(=O)NCc3ccccc3)ccc12 [Compound 87] | 280 nM | 1300 nM | –
28 | NC(N)=NCCC[C@H](NC(=O)[C@H](Cc1cccc(F)c1)NC(=O)Nc1ccc2c(CN3CCC(=O)CC3)cn(Cc3c(Cl)cccc3Cl)c2c1)C(=O)NCc1ccccc1 [Compound 88] | 1700 nM | 12600 nM | –
29 | Cc1ccccc1Cn1cc(CN2CCC(N(C)C)C2)c2ccc(NC(=O)N[C@H](Cc3ccc(F)c(F)c3)C(=O)N[C@@H](CCCN=C(N)N)C(=O)NCc3ccccc3)cc21 (some centres unmarked) [Compound 90] | 15800 nM | > 10000 nM | –
30 | COC[C@H]1CCCN1Cc1cn(Cc2cc(Cl)nc(Cl)c2)c2cc(NC(=O)N[C@@H](Cc3cccc(F)c3)C(=O)N[C@@H](CCCNC(=N)N)C(=O)NCc3ccccc3)ccc12 [Compound 91] | 4000 nM | 22400 nM | –
31 | N=C(N)NCCC[C@H](NC(=O)[C@H](Cc1cccc(F)c1)NC(=O)Nc1ccc2c(CN3CCCC3)cn(Cc3c(Cl)cccc3Cl)c2c1)C(=O)NCc1ccc(S(N)(=O)=O)cc1 [Compound 92] | 1000 nM | 1300 nM | –
